Where two headings read alike, the source gives them in different places.
Assays:
human PDE9A = human PDE9A (Homo sapiens, UniProt O76083); conditions: concentrations of up to 100 micromolar; cited from earlier work
human PDE9A2 = target: T1, human PDE9A2 (Homo sapiens, UniProt O76083); assay: PDE9A2 enzymatic activity assay (scintillation proximity assay); format: biochemical; conditions: for inhibition at 10 µM: read-out: % inhibition of PDE9A2
T1 construct: made in house; host or cells: Sf9 insect cells (infected; crude lysate used as enzyme source)
T1 sequence (O76083 1-533 isoform O76083-2): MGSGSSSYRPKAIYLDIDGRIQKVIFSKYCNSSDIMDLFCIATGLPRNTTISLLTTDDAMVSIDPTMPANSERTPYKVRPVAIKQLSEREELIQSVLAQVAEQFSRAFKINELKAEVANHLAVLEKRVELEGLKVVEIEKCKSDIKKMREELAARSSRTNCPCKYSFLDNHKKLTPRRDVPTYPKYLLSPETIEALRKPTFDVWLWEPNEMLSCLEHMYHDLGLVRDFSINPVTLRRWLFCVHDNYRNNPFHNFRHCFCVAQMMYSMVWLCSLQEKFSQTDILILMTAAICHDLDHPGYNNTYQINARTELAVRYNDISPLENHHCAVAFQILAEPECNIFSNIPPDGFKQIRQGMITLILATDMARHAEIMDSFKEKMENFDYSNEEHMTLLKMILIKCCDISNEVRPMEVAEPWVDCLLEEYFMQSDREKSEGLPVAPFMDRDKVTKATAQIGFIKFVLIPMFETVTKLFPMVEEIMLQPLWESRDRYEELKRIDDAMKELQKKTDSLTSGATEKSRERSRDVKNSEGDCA
Method: The PDE9A2 enzymatic activity assay was run as scintillation proximity assay (SPA), in general according to the protocol of the manufacturer (Amersham Biosciences, product number: TRKQ 7100).
As enzyme source, lysate (PBS with 1% Triton X-100 supplemented with protease inhibitors, cell debris removed by centrifugation at 13.000 rpm for 30 min) of SF 9 cell expressing the human PDE9A2 was used. The total protein amount included in the assay varied upon infection and production efficacy of the SF9 cells and lay in the range of 0.1-100 ng.
In general, the assay conditions were as follows: • total assay volume: 40 microliter • protein amount: 0.1-50 ng • substrate concentration (cGMP): 20 nanomolar; ˜1 mCi/l • incubation time: 60 min at room temperature • final DMSO concentration: 0.2-1%
The assays were run in 384-well format. The test reagents as well as the enzyme and the substrate were diluted in assay buffer. The assay buffer contained 50 mM Tris, 8.3 mM MgCl2, 1.7 mM EGTA, 0.1% BSA, 0.05% Tween 20; the pH of assay buffer was adjusted to 7.5. The reaction was stopped by applying a PDE9 specific inhibitor (e.g. compounds according to WO04099210 or WO04099211) in excess.
The activity of the positive control (minus the negative control=background) is set to 100% and activity in the presence of test compound is expressed relative to these 100%.

[1] = specific IC50 value lies within the given range, read-out: IC50 within range [nanomolar (nM)]

Chain of human PDE9A (O76083 whole entry): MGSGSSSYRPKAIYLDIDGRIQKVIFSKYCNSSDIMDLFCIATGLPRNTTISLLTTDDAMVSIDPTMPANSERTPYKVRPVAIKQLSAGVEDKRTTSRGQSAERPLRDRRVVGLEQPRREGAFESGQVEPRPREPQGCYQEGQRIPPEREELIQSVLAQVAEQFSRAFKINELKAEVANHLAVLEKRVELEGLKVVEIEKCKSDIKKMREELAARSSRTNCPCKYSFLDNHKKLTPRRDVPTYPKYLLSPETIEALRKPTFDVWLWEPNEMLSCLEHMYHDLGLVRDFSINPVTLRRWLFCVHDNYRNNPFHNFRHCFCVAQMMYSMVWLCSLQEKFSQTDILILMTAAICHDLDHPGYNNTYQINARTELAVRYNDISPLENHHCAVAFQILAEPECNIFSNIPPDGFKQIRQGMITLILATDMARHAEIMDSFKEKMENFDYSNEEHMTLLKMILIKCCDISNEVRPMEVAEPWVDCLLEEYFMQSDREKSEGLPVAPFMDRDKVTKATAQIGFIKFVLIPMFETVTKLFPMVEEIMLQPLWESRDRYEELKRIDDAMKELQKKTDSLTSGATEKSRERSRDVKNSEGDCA

Row | SMILES | inhibition at 10 µM (human PDE9A2; at 10 micromolar concentration) [%] | IC50 (human PDE9A2; [1]) [nM] | other results
1 | CC(=O)Nc1ccc(-c2c[nH]c(=O)cn2)cc1 [SKF94120] |  |  | inhibition on the isolated enzyme (human PDE9A): no inhibition
2 | CCOC(=O)C1=C[C@]2(CC)CCCN3CCc4c(n1c1ccccc41)[C@@H]32 [vinpocetine] |  |  | inhibition on the isolated enzyme (human PDE9A): no inhibition
3 | O=c1[nH]c([C@@H]2CC[C@H]2Cn2cccn2)nc2c1cnn2C1CCC(F)(F)CC1 (racemic) [Example 47] | 89 | 201 to 5000 | 
4 | O=c1[nH]c([C@@H]2CC[C@H]2CN2CC(F)(F)C(F)(F)C2)nc2c1cnn2C1CCC(F)(F)CC1 (racemic) [Example 28] | 94 | 1 to 200 | 
5 | O=C([C@H]1C[C@@H]1c1nc2c(cnn2C2CCC(F)(F)CC2)c(=O)[nH]1)N1CCCCC1 (racemic) [Example 23] | 92 | 201 to 5000 | 
6 | Cc1ccccc1-n1ncc2c(=O)[nH]c(C3CCC(O)C(O)C3)nc21 (mixture of isomers) [Example 41] |  | 201 to 5000 | 
7 | Cc1ccccc1-n1ncc2c(=O)[nH]c(C3CC3C)nc21 (mixture of isomers) [Example 37] |  | 1 to 200 | 
8 | Cc1ccccc1-n1ncc2c(=O)[nH]c(C3CCCC(O)C3)nc21 (mixture of isomers) [Example 40] |  | 201 to 5000 | 
9 | O=C([C@H]1CC[C@@H]1c1nc2c(cnn2C2CCC(F)(F)CC2)c(=O)[nH]1)N1C[C@H]2CCC[C@H]2C1 (racemic) [Example 8] |  |  | IC50 (human PDE9A2): 1 to 200 nM; inhibition at 10 µM (human PDE9A2): 100%
10 | COC(=O)C1CCCC(c2nc3c(cnn3-c3ccccc3C)c(=O)[nH]2)C1 (mixture of isomers) [Example 38] |  | 1 to 200 | 
11 | COC1(C)CCN(C(=O)[C@H]2CC[C@@H]2c2nc3c(cnn3C3CCC(F)(F)CC3)c(=O)[nH]2)CC1 (racemic) [Example 13] | 97 | 1 to 200 | 
12 | O=C([C@H]1CCCC[C@@H]1c1nc2c(cnn2C2CCC(F)(F)CC2)c(=O)[nH]1)N1CCCC1 (racemic) [Example 21] | 66 | 1 to 200 | 
13 | COc1ccc(C2CNC(=O)C2)cc1OC1CCCC1 (centres unmarked) [rolipram] |  |  | inhibition on the isolated enzyme (human PDE9A): no inhibition
14 | O=C([C@H]1CC[C@@H]1c1nc2c(cnn2C2CCC(F)(F)CC2)c(=O)[nH]1)N1CCCC(F)(F)C1 (racemic) [Example 14] | 100 | 1 to 200 | 
15 | O=C([C@H]1CC[C@@H]1c1nc2c(cnn2C2CCCC2)c(=O)[nH]1)N1CCCCC1 (racemic) [Example 24] | 101 | 1 to 200 | 
16 | Cc1ccncc1-n1ncc2c(=O)[nH]c(C3CCC3)nc21 [Example 31] | 80 | 201 to 5000 | 
17 | Cc1noc(C2CCC2c2nc3c(cnn3C3CCC(F)(F)CC3)c(=O)[nH]2)n1 (racemic) [Example 32] | 91 | 1 to 200 | 

Row | SMILES | inhibition at 10 µM (human PDE9A2; at 10 micromolar concentration) [%] | IC50 (human PDE9A2; [1]) [nM] | other results
18 | Cc1ccncc1-n1ncc2c(=O)[nH]c(C3CC(C)(C)C3)nc21 [Example 35] | 50 | 201 to 5000 | 
19 | O=C([C@H]1CCCC[C@@H]1c1nc2c(cnn2C2CCC(F)(F)CC2)c(=O)[nH]1)N1CCOCC1 (racemic) [Example 20] | 71 | 201 to 5000 | 
20 | OCCN(CCO)c1nc(N2CCCCC2)c2nc(N(CCO)CCO)nc(N3CCCCC3)c2n1 [dipyridamole] |  |  | inhibition on the isolated enzyme (human PDE9A): no inhibition
21 | CCC(CC)n1ncc2c(=O)[nH]c(C3CCCC(C(=O)O)C3)nc21 (single isomer, unassigned) [Example 45] |  | 201 to 5000 | 
22 | CCC(CC)n1ncc2c(=O)[nH]c(C3CCC(C(=O)Nc4cc(OC)cc(OC)c4)CC3)nc21 (mixture of isomers) [Example 44] |  | 201 to 5000 | 
23 | O=c1[nH]c(C2CCC2)nc2c1cnn2C1CCCC1 [Example 29] | 98 | 1 to 200 | 
24 | CCOC(=O)[C@H]1C[C@H]1c1nc2c(cnn2C(CC)CC)c(=O)[nH]1 (stereo in doubt) [Example 43] |  | 201 to 5000 | 
25 | Cc1ccncc1-n1ncc2c(=O)[nH]c([C@H]3C[C@@H]3C)nc21 (racemic) [Example 36] | 90 | 1 to 200 | 
26 | O=C([C@H]1CCC[C@@H]1c1nc2c(cnn2C2CCC(F)(F)CC2)c(=O)[nH]1)N1CCCCC1 (racemic) [Example 25] | 95 | 201 to 5000 | 
27 | CCOC(=O)[C@H]1CC[C@@H]1c1nc2c(cnn2C2CCCC2)c(=O)[nH]1 (racemic) [Example 27] | 98 | 1 to 200 | 
28 | Cc1ccccc1-n1ncc2c(=O)[nH]c(C3CC3)nc21 [Example 39] |  | 201 to 5000 | 
29 | O=C(C1CCCC1c1nc2c(cnn2C2CCCC2)c(=O)[nH]1)N1CCCCC1 (racemic) [Example 26] | 99 | 1 to 200 | 
30 | O=C([C@H]1CC[C@@H]1c1nc2c(cnn2C2CCC(F)(F)CC2)c(=O)[nH]1)N1CCC(C(F)(F)F)CC1 (racemic) [Example 6] | 101 | 1 to 200 | 
31 | CCOC(=O)C1CCCC(c2nc3c(cnn3C(CC)CC)c(=O)[nH]2)C1 (mixture of isomers) [Example 42] |  | 201 to 5000 | 
32 | O=C([C@H]1CCC[C@@H]1c1nc2c(cnn2C2CCC(F)(F)CC2)c(=O)[nH]1)N1CCC(F)(F)CC1 (racemic) [Example 19] | 92 | 1 to 200 | 
33 | O=C([C@H]1CC[C@@H]1c1nc2c(cnn2C2CCC(F)(F)CC2)c(=O)[nH]1)N1CC(F)(F)C(F)(F)C1 (racemic) [Example 4] | 97 | 1 to 200 | 

Now from value to compound, other results behind:

Row | inhibition at 10 µM (human PDE9A2; at 10 micromolar concentration) [%] | IC50 (human PDE9A2; [1]) [nM] | SMILES | other results
34 | 99 | 1 to 200 | O=C([C@H]1CC[C@@H]1c1nc2c(cnn2C2CCC(F)(F)CC2)c(=O)[nH]1)N1CCOCC1 (racemic) [Example 1] | 
35 | 99 | 1 to 200 | CCN(CC)C(=O)[C@H]1CC[C@@H]1c1nc2c(cnn2C2CCC(F)(F)CC2)c(=O)[nH]1 (racemic) [Example 17] | 
36 | 91 | 1 to 200 | O=C(O)[C@H]1CC[C@@H]1c1nc2c(cnn2C2CCC(F)(F)CC2)c(=O)[nH]1 (racemic) [Example 46] | 
37 | 98 | 1 to 200 | CC1(C)CN(C(=O)[C@H]2CC[C@@H]2c2nc3c(cnn3C3CCC(F)(F)CC3)c(=O)[nH]2)CCO1 (racemic) [Example 16] | 
38 | 100 | 1 to 200 | O=C([C@H]1CC[C@@H]1c1nc2c(cnn2C2CCC(F)(F)CC2)c(=O)[nH]1)N1CC[C@@H](F)C1 (racemic) [Example 2] | 
39 | 100 | 1 to 200 | O=C([C@H]1CC[C@@H]1c1nc2c(cnn2C2CCC(F)(F)CC2)c(=O)[nH]1)N1CCC2(CC2)C1 (racemic) [Example 5] | 
40 | 94 | 1 to 200 | O=C([C@H]1CC[C@@H]1c1nc2c(cnn2C2CCC(F)(F)CC2)c(=O)[nH]1)N1CCC(F)CC1 (racemic) [Example 11] | 
41 | 96 | 1 to 200 | O=C([C@H]1CC[C@@H]1c1nc2c(cnn2C2CCC(F)(F)CC2)c(=O)[nH]1)N1CCCCC1 (racemic) [Example 18] | 
42 | 83 | 201 to 5000 | O=c1[nH]c([C@@H]2CC[C@H]2CO)nc2c1cnn2C1CCC(F)(F)CC1 (racemic) [Example 33] | 
43 | 100 | 1 to 200 | O=C([C@H]1CC[C@@H]1c1nc2c(cnn2C2CCC(F)(F)CC2)c(=O)[nH]1)N1CCC(F)(F)C1 (racemic) [Example 3] | 
44 | 99 | 1 to 200 | O=C([C@H]1CC[C@@H]1c1nc2c(cnn2C2CCC(F)(F)CC2)c(=O)[nH]1)N1CCCC1 (racemic) [Example 12] | 
45 | 97 | 1 to 200 | CC1(C)CCN(C(=O)[C@H]2CC[C@@H]2c2nc3c(cnn3C3CCC(F)(F)CC3)c(=O)[nH]2)CC1 (racemic) [Example 10] | 
46 | 96 | 1 to 200 | O=c1[nH]c(C2CCC2)nc2c1cnn2C1CCC(F)(F)CC1 [Example 30] | 
47 | 100 | 1 to 200 | O=C([C@H]1CC[C@@H]1c1nc2c(cnn2C2CCC(F)(F)CC2)c(=O)[nH]1)N1CCC(F)(F)CC1 (racemic) [Example 9] | 
48 | 102 | 1 to 200 | CO[C@@H]1CCN(C(=O)[C@H]2CC[C@@H]2c2nc3c(cnn3C3CCC(F)(F)CC3)c(=O)[nH]2)C1 (racemic) [Example 7] | 
49 | 90 | 1 to 200 | C#CCNC(=O)C1CCC1c1nc2c(cnn2C2CCC(F)(F)CC2)c(=O)[nH]1 (racemic) [Example 22] | 
50 | 101 | 1 to 200 | CC1CCN(C(=O)[C@H]2CC[C@@H]2c2nc3c(cnn3C3CCC(F)(F)CC3)c(=O)[nH]2)CC1 (racemic) [Example 15] | 
51 | 57 | 201 to 5000 | O=C([C@@H]1CC[C@@H]1c1nc2c(cnn2C2CCC(F)(F)CC2)c(=O)[nH]1)N1CCCCC1 (racemic) [Example 34] | 
